The record followed here is patent US20140045823A1 (Neurocrine Biosciences, Inc., priority 2012, published 2014).

The target in the assay is T1, human GPR119 (Homo sapiens, UniProt Q8TDV5).
T1 construct: expression vector for human GPR119 cDNA (Acc. No. NP_848566); expressed in transfected cells; Min-6/hGPR119
T1 sequence (Q8TDV5 1-335): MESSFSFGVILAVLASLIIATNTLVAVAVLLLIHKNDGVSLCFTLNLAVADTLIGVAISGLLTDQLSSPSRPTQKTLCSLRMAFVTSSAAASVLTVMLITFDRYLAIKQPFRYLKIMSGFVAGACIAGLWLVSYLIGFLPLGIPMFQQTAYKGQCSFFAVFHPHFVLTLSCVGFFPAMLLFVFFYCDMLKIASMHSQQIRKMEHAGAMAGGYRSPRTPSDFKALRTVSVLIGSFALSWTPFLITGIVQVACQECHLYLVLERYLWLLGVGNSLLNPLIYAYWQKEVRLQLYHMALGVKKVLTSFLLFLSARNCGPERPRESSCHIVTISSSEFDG
The assay is described as follows: AlphaScreen cAMP assay in MIN6 cells stably transfected with human GPR119. As to conditions: Min-6/hGPR119 cells, 45 min at room temperature. Type of assay: cell-based. In a few lines:
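MIN6 cells stably expressing human GPR119, seeded 10000/well and grown 24 h, were exposed to compound in pH 7.4 buffer with 0.5 mM IBMX, 0.1% BSA and 1% DMSO for 45 min at room temperature. Intracellular cAMP then measured by AlphaScreen.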
For orientation: In Alpha technology, singlet oxygen from a donor bead excites a nearby acceptor bead.
One may read the EC50 as the concentration giving half of the maximal effect. Read a high EC50 as weaker potency. Take `CC(C)(CO)CNC(=O)c1ccc(-c2ncc(C(=O)N(C3CC3)C3CCN(C(=O)OC(C)(C)C)CC3)cn2)c(F)c1` [Example 101, 4-(Cyclopropyl-{2-[2-fluoro-4-(3-hydroxy-2,2-dimethyl-propylcarbamoyl)-phenyl]-pyrimidine-5-carbonyl}-amino)-piperidine-1-carboxylic acid tert-butyl ester]: it took 441 nM to reach a half-maximal effect (EC50).
On to `CCOCCNC(=O)c1ccc(-c2ncc(C(=O)N(C3CC3)C3CCN(C(=O)OC(C)(C)C)CC3)cn2)cc1F` [Example 102, 4-(Cyclopropyl-{2-[4-(2-ethoxy-ethylcarbamoyl)-3-fluoro-phenyl]-pyrimidine-5-carbonyl}-amino)-piperidine-1-carboxylic acid tert-butyl ester], for which a half-maximal effect (EC50) was put at 109 nM.
Take `CC(C)(C)OC(=O)N1CCC(N(C(=O)c2cnc(-c3ccc(C(=O)NC4CCCOC4)c(F)c3)nc2)C2CC2)CC1` (stereo not drawn) [Example 103, 4-(Cyclopropyl-{2-[3-fluoro-4-(tetrahydro-pyran-3-ylcarbamoyl)-phenyl]-pyrimidine-5-carbonyl}-amino)-piperidine-1-carboxylic acid tert-butyl ester]: the EC50 worked out at 168 nM.
With `Cc1noc(C2CCN(C(=O)c3ccc(-c4ncc(C(=O)N(C5CC5)C5CCN(C(=O)OC(C)(C)C)CC5)cn4)cc3F)C2)n1` (stereo not drawn) [Example 104, 4-[Cyclopropyl-(2-{3-fluoro-4-[3-(3-methyl-[1,2,4]oxadiazol-5-yl)-pyrrolidine-1-carbonyl]-phenyl}-pyrimidine-5-carbonyl)-amino]-piperidine-1-carboxylic acid tert-butyl ester], the EC50 turned out to be 180 nM.
Then `CC(C)(C)OC(=O)N1CCC(N(C(=O)c2cnc(-c3ccc(C(=O)NCc4ccccn4)c(F)c3)nc2)C2CC2)CC1` [Example 105, 4-[Cyclopropyl-(2-{3-fluoro-4-[(pyridin-2-ylmethyl)-carbamoyl]-phenyl}-pyrimidine-5-carbonyl)-amino]-piperidine-1-carboxylic acid tert-butyl ester], with 144 nM; and `COCC(C)N(C)C(=O)c1ccc(-c2ncc(C(=O)N(C3CC3)C3CCN(C(=O)OC(C)(C)C)CC3)cn2)cc1F` (stereo not drawn) [Example 106, 4-[Cyclopropyl-(2-{3-fluoro-4-[(2-methoxy-1-methyl-ethyl)-methyl-carbamoyl]-phenyl}-pyrimidine-5-carbonyl)-amino]-piperidine-1-carboxylic acid tert-butyl ester], with 253 nM; and `COC(C)CN(C)C(=O)c1ccc(-c2ncc(C(=O)N(C3CC3)C3CCN(C(=O)OC(C)(C)C)CC3)cn2)cc1F` (stereo not drawn) [Example 107, 4-[Cyclopropyl-(2-{3-fluoro-4-[(2-methoxy-propyl)-methyl-carbamoyl]-phenyl}-pyrimidine-5-carbonyl)-amino]-piperidine-1-carboxylic acid tert-butyl ester], with 114 nM.
Then `COC[C@@H]1CCCN1C(=O)c1ccc(-c2ncc(C(=O)N(C3CC3)C3CCN(C(=O)OC(C)(C)C)CC3)cn2)cc1F` [Example 108, 4-(Cyclopropyl-{2-[3-fluoro-4-(2-methoxymethyl-pyrrolidine-1-carbonyl)-phenyl]-pyrimidine-5-carbonyl}-amino)-piperidine-1-carboxylic acid tert-butyl ester], with 312 nM; and `CC(C)(C)OC(=O)N1CCC(N(C(=O)c2cnc(-c3ccc(C(=O)NCC#N)c(F)c3)nc2)C2CC2)CC1` [Example 109, 4-({2-[4-(Cyanomethyl-carbamoyl)-3-fluoro-phenyl]-pyrimidine-5-carbonyl}-cyclopropyl-amino)-piperidine-1-carboxylic acid tert-butyl ester], with 85 nM; and `CC(C)(C)OC(=O)N1CCC(N(C(=O)c2cnc(-c3ccc(C(=O)Nc4cccc(CO)c4)c(F)c3)nc2)C2CC2)CC1` [Example 110, 4-(Cyclopropyl-{2-[3-fluoro-4-(3-hydroxymethyl-phenylcarbamoyl)-phenyl]-pyrimidine-5-carbonyl}-amino)-piperidine-1-carboxylic acid tert-butyl ester], with 141 nM.
`Cc1cnc(CNC(=O)c2ccc(-c3ncc(C(=O)N(C4CC4)C4CCN(C(=O)OC(C)(C)C)CC4)cn3)cc2F)s1` [Example 111, 4-[Cyclopropyl-(2-{3-fluoro-4-[(5-methyl-thiazol-2-ylmethyl)-carbamoyl]-phenyl}-pyrimidine-5-carbonyl)-amino]-piperidine-1-carboxylic acid tert-butyl ester]: the EC50 was determined as 64 nM.
`CC(C)(C)OC(=O)N1CCC(N(C(=O)c2cnc(-c3ccc(C(=O)Nc4ccn[nH]4)c(F)c3)nc2)C2CC2)CC1` [Example 112, 4-(Cyclopropyl-{2-[3-fluoro-4-(2H-pyrazol-3-ylcarbamoyl)-phenyl]-pyrimidine-5-carbonyl}-amino)-piperidine-1-carboxylic acid tert-butyl ester] yielded an EC50 of 220 nM. This EC50 is about 3.4-fold higher than that of the compound before.
In the case of `CN(CCO)C(=O)c1ccc(-c2ncc(C(=O)N(C3CC3)C3CCN(C(=O)OC(C)(C)C)CC3)cn2)cc1F` [Example 113, 4-[Cyclopropyl-(2-{3-fluoro-4-[(2-hydroxy-ethyl)-methyl-carbamoyl]-phenyl}-pyrimidine-5-carbonyl)-amino]-piperidine-1-carboxylic acid tert-butyl ester] it was 597 nM; in that of `COC[C@H]1CCCN1C(=O)c1ccc(-c2ncc(C(=O)N(C3CC3)C3CCN(C(=O)OC(C)(C)C)CC3)cn2)cc1F` [Example 114, 4-(Cyclopropyl-{2-[3-fluoro-4-(2-methoxymethyl-pyrrolidine-1-carbonyl)-phenyl]-pyrimidine-5-carbonyl}-amino)-piperidine-1-carboxylic acid tert-butyl ester], 378 nM; in that of `CN(CC1CCOC1)C(=O)c1ccc(-c2ncc(C(=O)N(C3CC3)C3CCN(C(=O)OC(C)(C)C)CC3)cn2)cc1F` (stereo not drawn) [Example 115, 4-[Cyclopropyl-(2-{3-fluoro-4-[methyl-(tetrahydro-furan-3-ylmethyl)-carbamoyl]-phenyl}-pyrimidine-5-carbonyl)-amino]-piperidine-1-carboxylic acid tert-butyl ester], 164 nM.
The compound `CC(C)(C)OC(=O)N1CCC(N(C(=O)c2cnc(-c3ccc(C(=O)Nc4ccc(O)cc4)c(F)c3)nc2)C2CC2)CC1` [Example 116, 4-(Cyclopropyl-{2-[3-fluoro-4-(4-hydroxy-phenylcarbamoyl)-phenyl]-pyrimidine-5-carbonyl}-amino)-piperidine-1-carboxylic acid tert-butyl ester] gave an EC50 of 445 nM.
Then `CC(C)(C)OC(=O)N1CCC(N(C(=O)c2cnc(-c3ccc(C(=O)N4CCCOCC4)c(F)c3)nc2)C2CC2)CC1` [Example 117, 4-(Cyclopropyl-{2-[3-fluoro-4-([1,4]oxazepane-4-carbonyl)-phenyl]-pyrimidine-5-carbonyl}-amino)-piperidine-1-carboxylic acid tert-butyl ester], with 275 nM; and `CO[C@@H]1CCN(C(=O)c2ccc(-c3ncc(C(=O)N(C4CC4)C4CCN(C(=O)OC(C)(C)C)CC4)cn3)cc2F)C1` [Example 118, 4-(Cyclopropyl-{2-[3-fluoro-4-(3-methoxy-pyrrolidine-1-carbonyl)-phenyl]-pyrimidine-5-carbonyl}-amino)-piperidine-1-carboxylic acid tert-butyl ester], with 129 nM.
